Test results taken from the NIST ThermoML archive (doi:10.1021/je034096z).

Settings: Liquid

CC(O)CO (stereo not given) [1,2-propanediol]
Settings	vapor or sublimation pressure [kPa]
393.22 K	8.198
393.25 K	8.207
398.09 K	10.23
403.14 K	12.77
403.15 K	12.77
408.3 K	15.89
413.1 K	19.36
413.15 K	19.39
418.16 K	23.68
423.15 K	28.69
423.26 K	28.81

COCC(C)O (stereo not given) [1-methoxy-2-propanol]
Settings	vapor or sublimation pressure [kPa]
347.62 K	19.25
352.64 K	23.74
353.15 K	24.25
357.89 K	29.35
362.93 K	35.72
363.15 K	36.03
368.03 K	43.29
373.15 K	52.16
373.22 K	52.3
378.01 K	61.89

CCCCCCOCCOCCO [2-(2-hexyloxyethoxy)ethanol]
Settings	vapor or sublimation pressure [kPa]
402.96 K	1.111
403.01 K	1.117
403.15 K	1.124
408.02 K	1.435
413.15 K	1.831
413.2 K	1.835
418.17 K	2.293
422.87 K	2.825
423.15 K	2.858

CN1CCCC1=O [N-methylpyrrolidone]
Settings	vapor or sublimation pressure [kPa]
352.27 K	1.285
352.48 K	1.297
353.15 K	1.344
359.26 K	1.823
363.15 K	2.193
363.36 K	2.217
368.27 K	2.777
373.09 K	3.444
373.15 K	3.456
377.86 K	4.229
